The values that follow come from paper PMC7749613 (Journal of Cachexia, Sarcopenia and Muscle, 2020).

Bridge positions count the residues as written; N and C are the ends. Square brackets hold non-standard residues; d marks the D form. Peptide text beside a SMILES is read from it. d2Nal = N[C@H](Cc1ccc2ccccc2c1)C(=O)O; Nle = CCCC[C@H](N)C(=O)O

The assay addresses T1, OATP2B1 (Homo sapiens, UniProt O94956).
T1 construct: host or cells: HEK293
T1 sequence (O94956 1-709): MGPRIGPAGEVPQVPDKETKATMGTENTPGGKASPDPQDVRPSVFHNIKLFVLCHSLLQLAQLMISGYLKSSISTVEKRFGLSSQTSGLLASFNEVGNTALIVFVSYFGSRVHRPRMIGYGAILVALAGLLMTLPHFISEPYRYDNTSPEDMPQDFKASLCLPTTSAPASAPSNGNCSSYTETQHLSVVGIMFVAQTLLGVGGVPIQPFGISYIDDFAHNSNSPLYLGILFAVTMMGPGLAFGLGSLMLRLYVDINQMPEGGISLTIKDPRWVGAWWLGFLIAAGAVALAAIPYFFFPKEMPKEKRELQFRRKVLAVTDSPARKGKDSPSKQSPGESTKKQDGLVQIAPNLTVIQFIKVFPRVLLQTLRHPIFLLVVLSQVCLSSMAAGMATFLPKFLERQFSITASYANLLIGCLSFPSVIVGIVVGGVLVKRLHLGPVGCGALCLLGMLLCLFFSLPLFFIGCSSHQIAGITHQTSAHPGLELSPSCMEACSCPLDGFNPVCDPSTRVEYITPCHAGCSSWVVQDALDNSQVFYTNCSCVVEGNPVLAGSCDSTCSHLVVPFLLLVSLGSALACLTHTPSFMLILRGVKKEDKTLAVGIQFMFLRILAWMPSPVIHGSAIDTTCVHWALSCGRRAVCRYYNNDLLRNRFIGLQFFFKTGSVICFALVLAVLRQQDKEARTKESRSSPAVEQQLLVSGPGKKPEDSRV
Briefly: Inhibition of prototypical substrate (E3S) uptake by TCMCB07 in HEK293/OATP2B1 cells. Type of assay: in vitro ADME.

Experimental: Cells were then washed three times × 1.0 mL each with pre‐warmed Hank's Balanced Salt Solution (HBSS) buffer. A 0.5 mL aliquot of uptake buffer [HBSS plus 10 mM 4‐(2‐hydroxyethyl)‐1‐piperazineethanesulfonic acid (HEPES), pH 7.4], containing the radiolabelled prototypical substrate and mannitol, was then incubated for various times up to 60 min to determine the optimal incubation time for subsequent experiments (i.e. time of sampling during linear uptake conditions). At the designated times, 1.0 mL of ice‐cold HBSS buffer was added to stop uptake after which the cells were rinsed three times with 1.0 mL with ice‐cold HBSS. Hyamine hydroxide (0.33 mL) was then added to each well to lyse the cells. The cells were transferred into a scintillation vial and mixed with 6.0 mL of cytosine scintillation cocktail. Radioactivity of the solubilized cells was determined with a dual‐channel liquid scintillation counter (Beckman LS 6000; Beckman Coulter Inc., Fullerton, CA) and the protein quantified by a bicinchoninic acid protein assay kit (Pierce Biotechnology; Rockford, IL).

The molecule `CCCC[C@H](NC(C)=O)C(=O)N[C@H]1CC(=O)NCCCC[C@@H](C(=O)N[C@@H](C(=O)N2CCC[C@@H]2C(N)=O)C(C)C)NC(=O)[C@H](Cc2c[nH]c3ccccc23)NC(=O)[C@H](CCCN=C(N)N)NC(=O)[C@@H](Cc2ccc3ccccc3c2)NC(=O)[C@@H]2CCCN2C1=O` [TCMCB07, Ac‐Nle‐c[Asp‐Pro‐dNal2′‐Arg‐Trp‐Lys]‐dVal‐dPro‐NH2] (Ac-[Nle]DP[d2Nal]RWK[dV][dP]-NH2; lactam 2-7) returned an IC50 of 524 ± 83 µM.
